{"source": "patent US20110152345A1", "about": "“EBI3, DLX5, NPTX1 AND CDKN3 FOR TARGET GENES OF LUNG CANCER THERAPY AND DIAGNOSIS” (Oncotherapy Science, Inc., priority 2007, published 2011)", "key": {"LC319 cells": {"tested_on": "LC319 cells", "experiment": "MTT assay of LC319 cells treated with cell-permeable 11R-EF-1delta peptides", "type": "cell-based, human", "details": "peptide 2.5, 5.0 and 7.5 micro M for 5 days", "from_the_text": "19-amino acid peptide sequence corresponding to a part of EF-1delta protein that contained possible binding sites of CDKN3 were covalently linked at its NH2-terminus to a membrane transducing 11 poly-arginine sequence (11R; refs. Futaki et al., Hayama et al., 2006, 2007). Five cell permeable peptides were synthesized: 11R-EF-1delta73-91, RRRRRRRRRRR-GGG-TSGDHGELVVRIASLEVEN; 11R-EF-1delta90-108, RRRRRRRRRRR-GGG-ENQSLRGVVQELQQAISKL; 11R-EF-1delta108-126, RRRRRRRRRRR-GGG-LEARLNVLEKSSPGHRATA; 11R-EF-1delta125-143, RRRRRRRRRRR-GGG-TAPQTQHVSPMRQVEPPAK; 11R-EF-1delta142-160, RRRRRRRRRRR-GGG-AKKPATPAEDDEDDDIDLF. Peptides were purified by preparative reverse-phase high-pressure liquid chromatography. LC319 cells were incubated with the 11R peptides at the concentration of 2.5, 5.0 and 7.5 micro M for 5 days. The medium was changed at every 48 hours at the appropriate concentrations of each peptide and the viability of cells was evaluated by MTT assay at 5 days after the treatment. 12. Immunoprecipitation and MALDI-TOF-MS mapping of CDKN3-Associated Proteins."}, "CDKN3 and EF-1delta": {"biological_target": "T1, CDKN3 and EF-1delta (Homo sapiens, UniProt Q16667)", "T1 construct": "between endogenous CDKN3 and EF-1delta proteins in LC319 cells; endogenous in cells; host or cells: LC319 (human lung adenocarcinoma cell line)", "T1 sequence (Q16667 1-212)": "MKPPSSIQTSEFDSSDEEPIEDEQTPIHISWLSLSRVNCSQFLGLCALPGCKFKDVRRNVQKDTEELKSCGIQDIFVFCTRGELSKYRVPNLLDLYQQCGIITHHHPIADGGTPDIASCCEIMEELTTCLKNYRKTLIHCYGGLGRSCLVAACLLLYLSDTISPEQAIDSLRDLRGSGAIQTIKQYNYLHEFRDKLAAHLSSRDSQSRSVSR", "experiment": "Immunoprecipitation of endogenous CDKN3 and EF-1delta complex in peptide-treated LC319 cells", "type": "cell-based", "details": "peptide added to culture medium", "from_the_text": "FIG. 24: Identifies the CDKN3-binding region in EF-1delta. Part A presents a schematic drawing of five cell permeable peptides linked covalently at its NH2-terminus to a membrane transducing 11 poly-arginine sequence. The sequence of leucine zipper motif in EF-1delta and five cell permeable peptides derived from EF-1delta are shown. Part B presents the viability of LC319 cells evaluated by MTT assay in response to five cell permeable peptides (upper panel). Reduction of the complex formation detected by immunoprecipitation between endogenous CDKN3 and EF-1delta proteins in LC319 cells that were treated with the 11R-EF-1delta90-108 peptides (lower panel).\nThen, to investigate the functional significance of interaction between CDKN3 and EF-1delta for growth or survival of lung-cancer cells, bioactive cell-permeable peptides expected to inhibit the binding of these two proteins were developed. Next 5 different peptides of 19 amino acid sequence that included in codons 73-160 of EF-1delta were synthesized (FIG. 24A). These peptides were covalently linked at NH2-terminalus to a membrane transducing 11 arginine-residues (11R)."}}}
{"substance": "RRRRRRRRRRR-GGG-ENQSLRGVVQELQQAISKL (RRRRRRRRRRRGGGENQSLRGVVQELQQAISKL) [11R-EF-1delta90-108]", "values": [{"measurement": "cell viability (MTT assay)", "setting": "LC319 cells", "result": "significant decreases"}, {"measurement": "complex formation between endogenous CDKN3 and EF-1delta", "setting": "CDKN3 and EF-1delta", "result": "reduced complex formation"}]}
